{"source": "patent US6040149A", "about": "“Assay for identifying agents which act on the ceramide-activated protein kinase, kinase suppressor of ras, and methods of using said agents” (priority 1997, dated 2000)", "key": {"[1]": {"system": "ceramide-activated protein kinase", "conditions": "generation of other lipid second messengers, refs [111, 112]; cited from earlier work"}, "KSR [2]": {"target": "T1, KSR (Mus musculus, UniProt Q61097)", "T1 sequence (Q61097 1-873)": "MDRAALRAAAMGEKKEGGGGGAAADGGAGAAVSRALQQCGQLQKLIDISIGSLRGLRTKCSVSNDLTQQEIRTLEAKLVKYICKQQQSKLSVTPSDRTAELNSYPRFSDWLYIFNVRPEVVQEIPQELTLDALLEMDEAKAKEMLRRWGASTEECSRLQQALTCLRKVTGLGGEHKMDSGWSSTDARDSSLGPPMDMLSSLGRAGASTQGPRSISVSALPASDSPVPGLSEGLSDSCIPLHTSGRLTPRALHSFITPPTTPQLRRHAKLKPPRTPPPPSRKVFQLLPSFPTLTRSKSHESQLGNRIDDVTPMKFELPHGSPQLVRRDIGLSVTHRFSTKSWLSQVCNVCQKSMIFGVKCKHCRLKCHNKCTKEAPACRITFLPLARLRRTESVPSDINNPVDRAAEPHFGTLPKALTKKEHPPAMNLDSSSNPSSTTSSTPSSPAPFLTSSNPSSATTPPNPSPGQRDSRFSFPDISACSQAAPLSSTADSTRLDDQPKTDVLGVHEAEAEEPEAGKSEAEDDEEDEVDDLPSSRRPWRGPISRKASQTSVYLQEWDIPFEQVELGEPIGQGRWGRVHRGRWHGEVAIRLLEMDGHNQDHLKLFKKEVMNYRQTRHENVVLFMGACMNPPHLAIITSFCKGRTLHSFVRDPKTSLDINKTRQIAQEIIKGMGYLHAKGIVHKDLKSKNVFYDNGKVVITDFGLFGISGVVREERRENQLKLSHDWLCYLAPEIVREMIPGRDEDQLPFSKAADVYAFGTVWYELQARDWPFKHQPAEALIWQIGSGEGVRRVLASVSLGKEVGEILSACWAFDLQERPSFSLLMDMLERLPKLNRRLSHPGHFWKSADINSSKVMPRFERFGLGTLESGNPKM", "experiment": "KSR autophosphorylation in vitro", "type": "biochemical, mouse (KSR immunoprecipitated from COS-7 cells)", "set-up": "Raf-1 peptides as substrate", "procedure": "Phosphorylated KSR was resolved and detected as in FIG. 2A.\nKSR was immunoprecipitated as above from 0.8 mg NP-40 lysate protein with 40 μl agarose-conjugated anti-Flag antibody at 4° C. for 4 hrs or overnight. […] The reaction was stopped by addition of Laemmli sample buffer. Samples were resolved by 7.5% sodium dodecyl sulfate-polyacrylamide gel electrophoresis (SDS-PAGE) and autoradiographed."}, "KSR [3]": {"target": "T1, KSR", "experiment": "KSR activity toward Raf-1 peptides in vitro", "type": "biochemical, mouse (KSR immunoprecipitated from COS-7 cells)", "set-up": "Raf-1 peptides as substrate", "conditions": "30 nM", "procedure": "The wild type peptide contains eight potential phosphorylation sites (shown in bold). Substitution of alanines and glycines for serines and threonines generated one peptide (TTLP-peptide) containing only two potential phosphorylation sites (Thr^268,269) and another peptide (AALP-peptide) with no potential phosphorylation sites.\nFIG. 28A--Flag-tagged KSR was immunoprecipitated from 0.2 mg COS-7 lysate, and assayed with TTLP- or AALP-peptides in the presence of 30 nM ceramide (Avanti) or diluent (DMSO). Background counts per minute (cpm) derived from samples incubated with the AALP-peptide which contains no phosphorylation sites were subtracted from all points. Background cpm always represented less than 25% of the untreated total.\nFIG. 28B--Flag-tagged KSR immunoprecipitated from 0.2 mg COS-7 lysate was assayed with TTLP- or AALP-peptides in the presence of ceramide or diluent for 45 min as described in FIG. 7A.\nFIG. 28C--Flag-tagged KSR was immunoprecipitated from 0.15 mg COS-7 lysate and assayed with TTLP- or AALP-peptides for 20 min in the presence of 30 nM of the indicated lipid second messengers as described in FIG. 28A (AA: arachidonic acid; LPA: lyso phosphatidic acid; PMA: phorbol 12-myristate 13-acetate; DAG: 1,2-diacylglycerol).\nKSR-bound beads were incubated with reaction buffer B plus 10 mM MnCl2, 5 μM ATP and [γ-^32 P]ATP at 22° C. for the period of time indicated in the presence of 0.3 mM synthetic Raf-peptide or substrate peptides specific for other Ser/Thr protein kinases. […] (SEQ ID NO.3). Substitution of glycines and alanines for serines and threonines generated one peptide (termed TTLP-peptide) containing only two potential phosphorylation sites at Thr^268,269 (in bold), […] (SEQ ID NO. 24), and another peptide (termed AALP-peptide; SEQ ID No.6) with no potential phosphorylation sites, […] (SEQ ID No.25). The amino acid sequences of substrate peptides specific for other protein kinases (Joseph et al., 1993) are: […] (SEQ ID NO.26) (PKA); […] (SEQ ID NO.27) (S6 kinase); […] (SEQ ID NO.28)(CK II); […] (SEQ ID NO.29) (CaM kinase II); and […] (SEQ ID NO.30) (PKC). […] Substrate peptides for PKA and PKC were from Sigma (St. Louis, Mo.). The reaction was stopped by addition of a stop solution containing 0.5 M ATP in 90% formic acid. The beads were removed by centrifugation at 5000×g for 2 min and the supernatant was loaded on P81 Whatman filter paper. The filter was air dried and washed in 4 mM Na2 H2 P2 O7, 1 mM acetic acid for one hour. The filter was baked at 90° C. for 10 min and quantified by Cerenkov counting using a Beckman LS 5000TD scintillation counter. In some experiments, samples were separated by C18 reverse-phase chromatography on HPLC (Mathias et al., 1991) to verify the results of the filter assay. Virtually identical results were obtained with both methods."}, "[4]": {"system": "ceramide-activated protein kinase", "experiment": "EGFR peptide phosphorylation in a cell-free system (HL-60 nuclei-free supernate)", "type": "biochemical, human (HL-60 cells)", "conditions": "GTP and GTP-γ-S 0.25 to 200 μM; sphingomyelinase 1×10^-3 U ml^-1, 5 minutes; phospholipases 40- to 400-fold higher", "procedure": "Effect of TNF-α on ceramide-activated protein kinase activity. HL-60 cells were incubated in serum-free medium and homogenized (as in FIG. 9). […] ATP (750 μM, 4000 dpm pmol^-1), and 75 μl of reaction buffer. […] Phosphorylated peptide was first run on a C18 Sep-Pak cartridge, then resolved by C18 reverse-phase HPLC (Waters, Milford, Mass.), with a linear gradient of acetonitrile. The peptide eluted at 30% acetonitrile, as determined by monitoring Cerenkov radiation in 1-ml fractions. Background activity was subtracted from each point. (A) Kinetics of TNF-α (30 nM)-stimulated EGFR peptide phosphorylation. Values (mean) represent data from four experiments. (B) Concentration dependence of EGFR peptide phosphorylation at 5 minutes of stimulation with TNF-α (0.01 to 30 nM). Values (mean) represent data derived from duplicate points in two experiments. The SEM of the values in (A) was 18% and the mean range of values in (B) was 3%.\nEffect of phospholipases on ceramide-activated protein kinase activity. Nuclei-free supernates, prepared as in FIG. 9, were first incubated with TNF-α (3 nM) or added directly to reaction mixtures that contained various phospholipases; sphingomyelinase (SMase) (1×10^-3 U ml^-1, S. aureus), phospholipase A2 (PlA2) (3.8×10^-2 and 3.8×10^-1 U ml^-1, Vipera ruselli), phospholipase C (PLC) (3.8×10^-2 U ml^-1, Bacillus cereus) and phospholipase D (PLD) (3.8×10^-2 U ml^-1, Streptomyces chromocuscus). Peptide phosphorylation was measured as in FIG. 10. Control value represents peptide phosphorylation in the absence of phospholipases or TNF-α. Values (mean±SEM) represent data derived from duplicate samples in three experiments. *P<0.001 compared to control.\nThe effect of TNF-α on ceramide-activated protein kinase activity was assessed. […] For studies assessing the effect of TNFα in broken cell preparations, nuclei-free supernates were incubated under conditions sufficient for stimulation of neutral sphingomyelinase in a reaction mixture that also contained EGFR peptide and γ-^32 P-labeled ATP. Phosphorylated peptide was resolved by high-performance liquid chromatograph (HPLC) and quantified by Cerenkov counting. Kinase activity was calculated from the specific activity of [γ-^32 P] ATP and incorporation of ^32 P into EGFR peptide. Background activity was subtracted from each point. […] TNF-α stimulation of kinase activity was evident by 1 minute and demonstrable for at least 10 minutes. If the initial incubation with TNF-α at 4° C. was omitted and TNF was added directly to the reaction mixture at 22° C., the reaction was delayed. […] TNF-α enhanced kinase activity in a concentration-dependent manner at 5 minutes (FIG. 10B). […] This is similar to the ED50 of 200 pM for stimulation of ceramide-activated protein kinase by TNF-α in intact cells. TNF-α enhanced kinase activity in a total of 20 separate studies.\nControl activity reflects several TNF-α-independent protein kinases that are known to phosphorylate EGFR peptide on Thr^669."}, "Raf-1": {"system": "Raf-1", "experiment": "Kinase activity of immunoprecipitated Raf-1 toward MEK1 after HL-60 cell stimulation", "type": "cell-based, human (HL-60 cells)", "procedure": "Recovery of MEK1 was monitored by western blot (Bottom Panel). Identical results were obtained with cells stimulated for 5 min with TNF.\nRecovery of MEK1 was monitored by western blot (Bottom Panel).\nThese studies indicate that Raf-1 is a component of the sphingomyelin pathway mediating TNF action.\nMEK1 autophosphorylation was for 45 min. An autoradiogram of MEK1 phosphorylation (top panel) and recovery of MEK1 protein by western blot (bottom panel) are shown. For western blot, proteins separated by SDS-PAGE were electrotransferred to an Immobilon PVDF membrane at 12 volts overnight at 4° C. Membranes were then blocked with 2% BSA in TBS [20 mM Tris, pH 7.6, 137 mM NaCl] for 1 hr and washed with TBST (TBS containing 0.2% Tween-20)."}}, "note": "Like-named read-outs stand apart in the source and are kept apart here."}
{"compound": "1,2-diacylglycerol", "values": [{"measurement": "effect on kinase activity", "setting": "[1]", "value": "failed to enhance kinase activity"}, {"measurement": "effect on activation of KSR", "setting": "KSR [2]", "value": "no effect"}, {"measurement": "effect on activation of KSR towards Raf-peptide", "setting": "KSR [3]", "value": "no effect"}]}
{"compound": "Nc1nc2c(ncn2[C@@H]2O[C@H](COP(=O)(O)OP(=O)(O)OP(=O)(O)O)[C@@H](O)[C@H]2O)c(=O)[nH]1", "note": "[GTP, Guanosine triphosphate]", "values": [{"measurement": "effect on kinase activity", "setting": "[4]", "value": "did not affect kinase activity"}]}
{"compound": "Nc1nc2c(ncn2[C@@H]2O[C@H](COP(=O)(O)OP(=O)(O)OP(O)(O)=S)[C@@H](O)[C@H]2O)c(=O)[nH]1", "note": "[GTP-γ-S, guanosine-5'-O-(3-thiotriphosphate)]", "values": [{"measurement": "effect on kinase activity", "setting": "[4]", "value": "did not affect kinase activity"}]}
{"compound": "CCCCC/C=C\\C/C=C\\C/C=C\\C/C=C\\CCCC(=O)O", "note": "[arachidonic acid]", "values": [{"measurement": "effect on kinase activity", "setting": "[1]", "value": "failed to enhance kinase activity"}, {"measurement": "effect on activation of KSR", "setting": "KSR [2]", "value": "no effect"}, {"measurement": "effect on activation of KSR towards Raf-peptide", "setting": "KSR [3]", "value": "no effect"}]}
{"compound": "Granulocyte-macrophage colony stimulating factor: induces monocytic differentiation of HL-60 cells", "values": [{"measurement": "increase of Raf-1 activity", "setting": "Raf-1; GM-CSF 500 pM", "value": 2.5, "unit": "fold"}]}
{"compound": "PDGF", "values": [{"measurement": "increase of Raf-1 activation", "setting": "Raf-1; PDGF 5 nM, after TPA induction of PDGF receptors", "value": 4, "unit": "fold"}]}
{"compound": "insulin: insulin", "values": [{"measurement": "increase of Raf-1 activity", "setting": "Raf-1; insulin 100 nM", "value": 4, "unit": "fold"}]}
{"compound": "lyso-phosphatidic acid", "values": [{"measurement": "effect on activation of KSR", "setting": "KSR [2]", "value": "no effect"}, {"measurement": "effect on activation of KSR towards Raf-peptide", "setting": "KSR [3]", "value": "no effect"}]}
{"compound": "phosphatidic acid", "values": [{"measurement": "effect on kinase activity", "setting": "[1]", "value": "failed to enhance kinase activity"}]}
{"compound": "phosphatidylcholine", "values": [{"measurement": "effect on activation of KSR", "setting": "KSR [2]", "value": "no effect"}]}
{"compound": "phosphatidylserine", "values": [{"measurement": "effect on activation of KSR", "setting": "KSR [2]", "value": "no effect"}]}
